Measured values taken from patent US11723957B2, “Compositions comprising relaxin and methods of use thereof” (Beth Israel Deaconess Medical Center, Inc., priority 2016, dated 2023).
Values joined by “and” are separate entries in the source; they are usually repeats but may differ in a detail not shown here. Equal entries are not always repeated. “Also recorded” adds a separate entry of the source. No end group written: not given here.

Key:
[1] = system: relaxin antibody; test: Antibody-based ELISA of PEGylated relaxin; assay type: binding; conditions: Quantikine ELISA, six dilutions
[2] = system: NIH 373 murine fibroblasts; test: cAMP levels in fibroblasts exposed to relaxin; assay type: cell-based; conditions: cultured NIH 373 murine fibroblasts exposed to relaxin
Procedure: The activity of recombinant relaxin (RLN2) was validated by measuring upregulation in the production of cAMP, a secondary metabolite of the relaxin signaling pathway. Increases in cAMP lead to increased MMP expression and decreased collagen and TIMP expression. To validate the activity of RLN2, cultured NIH 373 murine fibroblasts were exposed to relaxin, and the resulting cAMP levels were measured.

[3] = in vivo; cited from earlier work
[4] = system: glenohumeral joint capsule and articular cartilage; assay type: in vivo, Sprague Dawley rats
Description: At the conclusion of the follow-up period, the rats were euthanized according to IACUC guidelines. The rats were weighed and then subjected to CO2 exposure for euthanasia, and further confirmed through a bilateral thoracotomy. The shoulders were bilaterally harvested by disarticulating the humerus from the ulna, and removing the scapula from the clavicle and thoracic cavity. Excess muscle tissue not immediately surrounding the glenohumeral joint capsule was removed. The excised shoulders were decalcified for two months in a solution of ethylenediaminetetraacetic acid (EDTA), which was changed every two to three days. Once decalcified, the shoulders were affixed in a solution of 10% formalin and then mounted in paraffin stacks for histological sectioning at the Beth Israel Deaconess Medical Center (BIDMC) Histology Core. These stacks were mounted so that coronal slicing could be obtained. The slices were stained with hematoxylin and eosin (H&E) and examined for any morphological changes. These slices were taken from a posterior region of humeral head to better find evidence of periarticular adhesions (Brue et al., Knee Surg. Sports Traumatol. Arthrosc., 2007, 15(8):1048-54; White et al., Radiographics, 2016, 36(3):824-39). Further slices, taken mid-coronally, were also stained with fibronectin antibodies paired with peroxidase to further examine fibrotic characteristics such as capsular thickening. Collagen III, α-smooth muscle actin, and other acute fibrotic markers were not chosen for analysis, since histologic sectioning would occur 4 months after contracture creation. The specimen chosen to undergo histological analysis were the surgical control group and the IAM group. The IAM group was chosen because this group received the highest and most frequent dose of relaxin, and was, therefore, the best candidate to showcase any morphologic changes due to relaxin administration. The contralateral shoulders from the surgical control group were used to model a healthy control shoulder for histologic comparisons.

[5] = system: rat shoulder contracture model (glenohumeral joint); test: ROM measurement in rat shoulder contracture model (Example 2); assay type: in vivo, Sprague Dawley rats; conditions: for Final ROM, Total ROM: 8 weeks follow-up; for Difference ROM (% Δ°), External ROM / Difference ROM (% Δ°), Internal ROM / Difference ROM (% Δ°), Total ROM: final versus baseline
Procedure: On the approval of the Institutional Animal Care and Use Committee (IACUC) at Beth Israel Deaconess Medical Center, 20 Female Sprague Dawley rats (250-300 g, Charles River Laboratories, Inc., Wilmington, Mass., USA) were chosen for this study. Baseline ROM measurements were taken for both forelimbs of each rat prior to any surgical intervention. Torque measurements were recorded at […] (τINT) and 60° of external rotation (τOUT), totaling a full 160° range of motion (ROM) (FIG. 4, Panels B and C). These measurements were required as they indicate a baseline for normal torque necessary to achieve both rotations. The specific rotation angles were chosen under fluoroscopic guidance to ensure minimal scapular recruitment, while simultaneously allowing for maximum humeral rotation within the joint space. Each ROM measurement was repeated three times to ensure consistency. All measurements were also performed under anesthesia to prevent any active muscle activation from interfering with the passive capsular resistance. Induction of the rats was performed at 5% isoflurane inhalation, and maintenance was managed at a 2% isoflurane dose.
After the baseline measurements and under anesthesia, 20 rats were subjected to the immobilization procedure as outlined in Example 1 and in Villa-Camacho et al., Journal of Shoulder and Elbow Surgery, 2015, 24(11):1809-16, to induce fibrosis. In short, an incision was created longitudinally on the left limb, perpendicular to the scapular spine, to expose both the scapula and humerus. A No. 2-0 Ethibond polyester suture (Ethicon, San Lorenzo, PR, USA) was used to immobilize the humerus to the scapula by passing two loops through the medial border of the scapula and against the humeral shaft (FIG. 4, Panel A). Care was taken to ensure that the sutures avoided critical vasculature, musculature, and nerves. Each rat was maintained under fixation for 8 weeks. After the eighth week, the suture fixations were removed, and the rats were randomly placed in four groups: (1) intra-articular relaxin, single dose (IAS) (n=5); (2) intra-articular relaxin, multiple doses (IAM) (n=5); (3) intravenous relaxin, multiple doses (IVM) (n=5); and (4) untreated surgical controls (n=5). The sample size was determined with a power of 0.80 and α=0.05 if a 10% increase in range of motion from contracture was to be expected.
The mechanical testing apparatus was assembled with four core components and controlled with a computer through custom-built software written on MATLAB 7.13.0.564 (The MathWorks, Inc., Natick, Mass., USA). Movement of the forelimb was mediated by a stepper motor controlled by a microcontroller (UNO R3; Arduino, Torino, Italy). The motor was then positioned axially with the reaction torque sensor (TFF400; FUTEK Advanced Sensor Technology, Inc., Irvine, Calif., USA), which measured torque and was utilized as an input feedback for the system. Along the same axis, the arm clamp and the 3-axis inclinometer (3DM-GX3-15; MicroStrain, Inc., Williston, Vt., USA) were attached on the sensing side of the torque sensor. The inclinometer also provided both positional feedback as well as angular measurements for the system. The entire assembly was positioned above the rat with the sensing plane parallel to the ground to ensure that gravity had little impact on the torque measurements (FIG. 4). The apparatus was programmed to move to a specified torque or angle for internal and external rotation for each rat. Plastic zip ties were used to secure the rat forelimb in the apparatus. Care was taken to prevent any injury, and the apparatus was programmed with an internal and external limit switch in the case the apparatus operated abnormally.
Immediately after removal of the restraining sutures, relaxin was administered to the noncontrol group rats. […]

[6] = IAM: intra-articular, multiple doses, final measurement
[7] = IAS: intra-articular, single dose, final measurement
[8] = IVM: intravenous, multiple doses, final measurement

Q: For “PEGylated relaxin: relaxin reacted with mPEG-SVA (2000 MW); product conjugated with two PEG chains (chain 1 QLYSALANKCCHVGCTKRSLARFC; chain 2 DSWMEEVIKLCGRELVRAQIAICGMSTWS; not fully specified (bridges); ends and bridges not checked)”, which “Recognition by the relaxin antibody” value [1] is on record?
A: recognized by the relaxin antibody

Q: Which cAMP levels [2] does the source give for relaxin here?
A: dose-dependent upregulation of cAMP levels

Q: What about the Half-life [3] of the same substance?
A: about 2.5 hours

Q: And the “Capsular adhesions, H&E stained sections” value ([4]; IAM group, end of follow-up)?
A: lacked any apparent adhesions

Q: And the “Capsular tissue thickness, fibronectin stain” value ([4]; IAM group, end of follow-up)?
A: return to normal thickness in capsular tissue

Q: What about the “Peroxidase intensity (fibronectin stain) in and around capsular tissue” value ([4]; IAM group, end of follow-up) of the same substance?
A: reduction in peroxidase intensity

Q: What about the “Articular cartilage quality, OARSI grading system” value ([4]; rat, in vivo) of the same substance?
A: between a grade 1 and grade 2 level of osteoarthritis

Q: What about the “Fibrillation of the articular surface, H&E” value ([4]; rat, in vivo) of the same substance?
A: both superficial and deep fibrillation within the articular surface

Q: What about the “Treatment of shoulder contracture, overall result” value ([5]; 5 intra-articular doses of 0.0005 mg over 10 days (total 0.0025 mg)) of the same substance?
A: effective in treating shoulder contracture; also recorded: full recovery with increased ROM for 60 days

Q: And the “ROM of healthy contralateral forelimbs / systemic joint laxity” value ([5]; IAM, IAS and IVM groups)?
A: no significant change from baseline; also recorded: no systemic joint laxity was present

Q: And the “Final ROM, Total ROM” value ([5]; IAM: intra-articular, multiple doses (5 x 0.0005 mg every 2 days), final measurement)?
A: 159.13 ± 6.97 °

Q: And the “Final ROM, External ROM” value [5, 6]?
A: 60.27 ± 11.05 °

Q: And the “Final ROM, Internal ROM” value [5, 6]?
A: 98.87 ± 10.63 °

Q: What about the “Total ROM compared with surgical control group (statistics)” value ([5]; IAM, final measurement, P<0.01) of the same substance?
A: significantly improved when compared with the control group

Q: What about the “Total ROM compared with baseline measurements (statistics)” value ([5]; IAM, final measurement, P=0.94) of the same substance?
A: not statistically different from the baseline measurements

Q: And the “Difference ROM (% Δ°), External ROM” value ([5]; IAM)?
A: 1.01%

Q: And the “Difference ROM (% Δ°), Internal ROM” value ([5]; IAM)?
A: −0.27%

Q: What about the “Difference ROM (% Δ°), Total ROM” value ([5]; IAM) of the same substance?
A: 0.21%

Q: What about the “Final ROM, Total ROM” value ([5]; IAS: intra-articular, single dose 0.0005 mg, final measurement) of the same substance?
A: 138.40 ± 15.34 °

Q: And the “Final ROM, External ROM” value [5, 7]?
A: 63.13 ± 14.20 °

Q: What about the “Final ROM, Internal ROM” value [5, 7] of the same substance?
A: 75.27 ± 15.62 °

Q: And the “Increase in total ROM compared with surgical control (statistics)” value ([5]; IAS, final measurement)?
A: not found to be significant

Q: What about the “Restriction of total ROM compared with baseline” value ([5]; IAS, final measurement) of the same substance?
A: −21.72 °

Q: What about the “Difference ROM (% Δ°), External ROM” value ([5]; IAS) of the same substance?
A: 5.22%

Q: And the “Difference ROM (% Δ°), Internal ROM” value ([5]; IAS)?
A: −24.83%

Q: And the “Difference ROM (% Δ°), Total ROM” value ([5]; IAS)?
A: −13.57%

Q: What about the “Improvement in ROM over the surgical control group” value ([5]; IAS, measurement immediately following day 0, P=0.025) of the same substance?
A: 11.87 °

Q: What about the “Final ROM, Total ROM” value ([5]; IVM: intravenous, multiple doses (5 x 0.17 mg every 2 days), final measurement) of the same substance?
A: 127.93 ± 16.35 °

Q: And the “Final ROM, External ROM” value [5, 8]?
A: 54.67 ± 15.30 °

Q: What about the “Final ROM, Internal ROM” value [5, 8] of the same substance?
A: 73.27 ± 10.35 °

Q: And the “Restriction of total ROM compared with baseline” value ([5]; IVM, final measurement)?
A: −30.73 °

Q: What about the “Difference ROM (% Δ°), External ROM” value ([5]; IVM) of the same substance?
A: −7.87%

Q: And the “Difference ROM (% Δ°), Internal ROM” value ([5]; IVM)?
A: −26.24%

Q: And the “Difference ROM (% Δ°), Total ROM” value ([5]; IVM)?
A: −19.42% and −19.37%

Q: And the “Treatment of shoulder contracture, overall result” value ([5]; single intra-articular injection of 0.0005 mg)?
A: ineffective
